Reference: PubChem BioAssay (NCI)
Where “and” joins values, the source holds several entries; their conditions need not be identical. Equal entries are not always repeated.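 How tested: cells in 96-well plates exposed to compound for 48 hours at five concentrations. GI50 marks 50% less growth. Definition used: TGI = concentration required for complete inhibition of growth.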

Tests used:
Assay in all cases: NCI tumour cell line growth inhibition, 48 h
OVCAR-8 ovarian = system: OVCAR-8 ovarian
DLD-1 colon = system: DLD-1 colon
NCI-H460 lung = system: NCI-H460 lung
SK-MEL-5 melanoma = system: SK-MEL-5 melanoma
786-0 renal = system: 786-0 renal
KM12 colon = system: KM12 colon
P388 leukemia = system: P388 leukemia
DMS 114 small cell lung = system: DMS 114 small cell lung
MDA-N = system: MDA-N
TK-10 renal = system: TK-10 renal
NCI-H522 lung = system: NCI-H522 lung
MOLT-4 leukemia = system: MOLT-4 leukemia
CCRF-CEM leukemia = system: CCRF-CEM leukemia
U251 CNS = system: U251 CNS
BT-549 breast = system: BT-549 breast
HOP-18 NSCLC = system: HOP-18 NSCLC
SF-539 CNS = system: SF-539 CNS
P388/ADR leukemia = system: P388/ADR leukemia
NCI-H226 lung = system: NCI-H226 lung
T-47D breast = system: T-47D breast
HCT-15 colon = system: HCT-15 colon
DMS 273 small cell lung = system: DMS 273 small cell lung
MDA-MB-435 = system: MDA-MB-435
UACC-62 melanoma = system: UACC-62 melanoma
PC-3 prostate = system: PC-3 prostate
HL-60(TB) leukemia = system: HL-60(TB) leukemia
CAKI-1 renal = system: CAKI-1 renal
HOP-92 NSCLC = system: HOP-92 NSCLC
HCC-2998 colon = system: HCC-2998 colon
NCI/ADR-RES ovarian = system: NCI/ADR-RES ovarian
ACHN renal = system: ACHN renal
SN12C renal = system: SN12C renal
SW-620 colon = system: SW-620 colon
K-562 leukemia = system: K-562 leukemia
OVCAR-4 ovarian = system: OVCAR-4 ovarian
NCI-H23 lung = system: NCI-H23 lung
M19-MEL melanoma = system: M19-MEL melanoma
MCF7 breast = system: MCF7 breast
SK-OV-3 ovarian = system: SK-OV-3 ovarian
SN12K1 renal = system: SN12K1 renal
SNB-19 CNS = system: SNB-19 CNS
MDA-MB-231 breast = system: MDA-MB-231 breast
UO-31 renal = system: UO-31 renal
HT29 colon = system: HT29 colon
SF-295 CNS = system: SF-295 CNS
SNB-75 CNS = system: SNB-75 CNS
M14 melanoma = system: M14 melanoma
KM20L2 colon = system: KM20L2 colon
OVCAR-5 ovarian = system: OVCAR-5 ovarian
A498 renal = system: A498 renal
XF 498 CNS = system: XF 498 CNS
MALME-3M melanoma = system: MALME-3M melanoma
HS 578T breast = system: HS 578T breast
SNB-78 CNS = system: SNB-78 CNS
RXF 393 renal = system: RXF 393 renal
SK-MEL-2 melanoma = system: SK-MEL-2 melanoma
DU-145 prostate = system: DU-145 prostate
SK-MEL-28 melanoma = system: SK-MEL-28 melanoma
UACC-257 melanoma = system: UACC-257 melanoma
HOP-62 NSCLC = system: HOP-62 NSCLC
HCT-116 colon = system: HCT-116 colon
RPMI-8226 leukemia = system: RPMI-8226 leukemia
SF-268 CNS = system: SF-268 CNS
IGROV1 ovarian = system: IGROV1 ovarian
A549 NSCLC = system: A549 NSCLC
SR leukemia = system: SR leukemia
OVCAR-3 ovarian = system: OVCAR-3 ovarian
LOX IMVI melanoma = system: LOX IMVI melanoma
COLO 205 colon = system: COLO 205 colon
EKVX NSCLC = system: EKVX NSCLC

## ClCCCN1CCN(CCCl)CC1
OVCAR-8 ovarian
  TGI: 348 µM
DLD-1 colon
  TGI: 319 µM
NCI-H460 lung
  GI50: 7.97 µM
  TGI: 356 µM
SK-MEL-5 melanoma
  TGI: 647 µM
786-0 renal
  TGI: 427 µM
KM12 colon
  TGI: > 1000 µM
P388 leukemia
  TGI: > 840 µM
DMS 114 small cell lung
  TGI: 203 µM
MDA-N
  TGI: 742 µM
TK-10 renal
  TGI: > 903 µM
NCI-H522 lung
  GI50: 54.9 µM
  TGI: 356 µM
MOLT-4 leukemia
  GI50: 1.39 µM
  TGI: 110 µM
CCRF-CEM leukemia
  GI50: 2.54 µM
  TGI: 437 µM
U251 CNS
  GI50: 79.6 µM
  TGI: 543 µM
BT-549 breast
  TGI: 423 µM
HOP-18 NSCLC
  TGI: > 1000 µM
SF-539 CNS
  GI50: 27.9 µM
  TGI: 233 µM
P388/ADR leukemia
  TGI: > 529 µM
NCI-H226 lung
  TGI: 879 µM
T-47D breast
  TGI: > 745 µM
HCT-15 colon
  TGI: 790 µM
DMS 273 small cell lung
  TGI: 475 µM
MDA-MB-435
  TGI: > 930 µM
UACC-62 melanoma
  GI50: 20 µM
  TGI: 92 µM
PC-3 prostate
  TGI: > 1000 µM
HL-60(TB) leukemia
  TGI: 62.3 µM and 141 µM
CAKI-1 renal
  TGI: 358 µM
HOP-92 NSCLC
  GI50: 0.0248 µM
HCC-2998 colon
  TGI: 997 µM
NCI/ADR-RES ovarian
  GI50: 66.3 µM
  TGI: 628 µM
ACHN renal
  GI50: 7.09 µM
  TGI: 265 µM
SN12C renal
  GI50: 8.8 µM
  TGI: 626 µM
SW-620 colon
  GI50: 83.7 µM
  TGI: > 873 µM
K-562 leukemia
  GI50: 82.9 µM
  TGI: > 965 µM
OVCAR-4 ovarian
  TGI: 430 µM
NCI-H23 lung
  GI50: 19.5 µM
  TGI: 586 µM
M19-MEL melanoma
  TGI: 773 µM
MCF7 breast
  TGI: 736 µM
SK-OV-3 ovarian
  TGI: 166 µM
SN12K1 renal
  TGI: 575 µM
SNB-19 CNS
  GI50: 99.1 µM
  TGI: > 1000 µM
MDA-MB-231 breast
  TGI: > 768 µM
UO-31 renal
  GI50: 56.4 µM
  TGI: 493 µM
HT29 colon
  TGI: > 818 µM
SF-295 CNS
  GI50: 40.8 µM
  TGI: 456 µM
SNB-75 CNS
  GI50: 43.2 µM
  TGI: 681 µM
M14 melanoma
  GI50: 77.2 µM
  TGI: 872 µM
KM20L2 colon
  TGI: > 1000 µM
OVCAR-5 ovarian
  TGI: 737 µM
A498 renal
  TGI: 774 µM
XF 498 CNS
  TGI: 147 µM
MALME-3M melanoma
  TGI: 390 µM
HS 578T breast
  TGI: 885 µM
SNB-78 CNS
  TGI: > 567 µM
RXF 393 renal
  TGI: 439 µM
SK-MEL-2 melanoma
  TGI: 760 µM
DU-145 prostate
  GI50: 26.9 µM
  TGI: 692 µM
SK-MEL-28 melanoma
  TGI: > 1000 µM
UACC-257 melanoma
  TGI: > 1000 µM
HOP-62 NSCLC
  TGI: 168 µM
HCT-116 colon
  TGI: 747 µM
RPMI-8226 leukemia
  TGI: 743 µM
SF-268 CNS
  GI50: 38.6 µM
  TGI: > 892 µM
IGROV1 ovarian
  TGI: 652 µM
A549 NSCLC
  GI50: 96.2 µM
  TGI: > 851 µM
SR leukemia
  GI50: 3.44 µM
OVCAR-3 ovarian
  GI50: 84.3 µM
  TGI: 430 µM
LOX IMVI melanoma
  GI50: 23.9 µM
  TGI: 608 µM
COLO 205 colon
  TGI: 468 µM
EKVX NSCLC
  TGI: 873 µM
